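Assay format: 96-well plates, 48-hour exposure. At the GI50, growth is halved.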 Active and inactive are the calls of the source. Rule as the data show it: active = GI50 up to about 1.1 µM and inactive = higher.

Test systems include A549; HCT-116; UACC-62; TK-10; KM12; OVCAR-5; HCC 2998; SK-OV-3; NCI-H226; HCT-15; UO-31; OVCAR-3; SF-295; M14; DU-145; SF-539; OVCAR-8; EKVX; Malme-3M; BT-549.
Assay in all cases: NCI anticancer screen, dose series, 48 h

As for `COc1cc(OC2OC(CO)C(O)C(O)C2O)c2c(c1)O[C@@H]1[C@H](O)Oc3cc(OC)c(OC)cc3[C@]1(O)C2=O` (some centres undefined), the GI50 with A549, in the assay on HCT-116, in the assay on UACC-62, with TK-10, in the assay on KM12 and in the assay on OVCAR-5 was > 25 µM (inactive) each time. Also, the GI50 in the assay on HCC 2998 is > 25 µM (inactive); in the assay with SK-OV-3, > 25 µM (inactive); in the assay with NCI-H226, > 25 µM (inactive); in the assay on HCT-15, above 25 µM; with UO-31, > 25 µM (inactive); in the assay on OVCAR-3 it was > 25 µM (inactive). Further, the GI50 with SF-295, with M14, in the assay on DU-145, in the assay on SF-539, in the assay with OVCAR-8 and in the assay on EKVX was > 25 µM (inactive) each time.
In the case of `CCOP(=O)(OCC)C(c1ccccc1)N(C(=O)NC(F)(F)F)c1cccc(F)c1` (centres undefined), the GI50 with A549 is > 100 µM (inactive); with HCT-116, > 100 µM (inactive); with TK-10, > 100 µM (inactive); in the assay on KM12 it was > 100 µM (inactive); in the assay with OVCAR-5 it was > 10 µM (inactive); in the assay on HCC 2998, 55.8 µM (inactive). Further, the GI50 with NCI-H226 is > 100 µM (inactive); with HCT-15 it was 81.5 µM; in the assay with UO-31 it was 58.6 µM (inactive); in the assay with OVCAR-3, > 100 µM (inactive); with SF-295, > 100 µM (inactive); with M14, > 100 µM (inactive). In addition, the GI50 is > 100 µM (inactive) in the assay with DU-145; > 100 µM (inactive) in the assay on SF-539; > 100 µM (inactive) in the assay on Malme-3M; > 100 µM (inactive) in the assay with OVCAR-8; 94.8 µM (inactive) with EKVX.
Regarding `C/C(=C\CNc1nc(Cl)nc2[nH]cnc12)CO`, the GI50 in the assay on A549, in the assay with HCT-116, in the assay on UACC-62, in the assay on TK-10, with KM12 and with OVCAR-5 was > 100 µM (inactive) in each case. The GI50 in the assay on HCC 2998, with SK-OV-3, with NCI-H226, in the assay on UO-31, with OVCAR-3 and in the assay on SF-295 was > 100 µM (inactive) throughout. Further, the GI50 in the assay with M14, with DU-145, in the assay with SF-539, with Malme-3M, in the assay on OVCAR-8 and in the assay with EKVX was > 100 µM (inactive) in each case.
For the compound `N/N=C1/CCCc2nonc21`, the GI50 in the assay with A549, in the assay with HCT-116, with UACC-62, with TK-10, in the assay with KM12 and in the assay on OVCAR-5 was > 100 µM (inactive) in each case. Moreover, the GI50 in the assay with HCC 2998 was > 100 µM (inactive); in the assay on SK-OV-3, > 100 µM (inactive); in the assay with HCT-15, above 100 µM; in the assay on OVCAR-3 it was > 100 µM (inactive); with SF-295 it was > 100 µM (inactive); in the assay with M14, > 100 µM (inactive). For the same compound, the GI50 in the assay on DU-145, in the assay on SF-539, in the assay with Malme-3M, in the assay with OVCAR-8 and in the assay on EKVX was > 100 µM (inactive) in each case.
As for `O=C(/C=C/c1ccc(O)c(O)c1O)OCCc1ccccc1`, the GI50 was 26.2 µM (inactive) in the assay on A549; 13.5 µM (inactive) in the assay with HCT-116; 34 µM (inactive) in the assay on UACC-62; 83.2 µM (inactive) in the assay with TK-10; 28.9 µM (inactive) with KM12; 41.9 µM (inactive) with OVCAR-5. The GI50 in the assay on HCC 2998 was > 100 µM (inactive); in the assay with SK-OV-3, 90.8 µM (inactive); in the assay on NCI-H226, 27.7 µM (inactive); in the assay on HCT-15 it was 23.4 µM; in the assay on UO-31 it was 38.7 µM (inactive); with OVCAR-3 it was 21.6 µM (inactive). For the same compound, the GI50 with SF-295 was 19.2 µM (inactive); in the assay with M14 it was 20 µM (inactive); with DU-145, > 100 µM (inactive); in the assay on SF-539, 37.3 µM (inactive); with Malme-3M, > 100 µM (inactive); with EKVX, > 100 µM (inactive).
Consider `O=c1[nH]c(=O)n(COCc2ccccc2)c2ccc([N+](=O)[O-])cc12`, for which the GI50 in the assay with A549, in the assay with HCT-116, in the assay with UACC-62, in the assay with TK-10, in the assay with KM12 and with OVCAR-5 was > 100 µM (inactive) each time. The GI50 in the assay with HCC 2998 is > 100 µM (inactive); in the assay with SK-OV-3, > 100 µM (inactive); with NCI-H226, > 100 µM (inactive); in the assay on HCT-15 it was above 100 µM; with UO-31, > 100 µM (inactive); in the assay with OVCAR-3 it was > 100 µM (inactive). Moreover, the GI50 in the assay on SF-295 is > 100 µM (inactive); with M14, > 100 µM (inactive); in the assay on DU-145, > 100 µM (inactive); in the assay with SF-539, > 100 µM (inactive); with OVCAR-8 it was 35.2 µM (inactive); in the assay on EKVX, > 100 µM (inactive).
Turning to `CC(C)/C(Cl)=N\OC(NC(=O)P(=O)(c1ccccc1)c1ccccc1)(C(F)(F)F)C(F)(F)F`, the GI50 in the assay with A549 is 5.15 µM (inactive); in the assay on HCT-116, 9.16 µM (inactive); in the assay with UACC-62, 16 µM (inactive); with TK-10, 11.7 µM (inactive); in the assay on KM12, 7.26 µM (inactive); in the assay on OVCAR-5, 24.3 µM (inactive). The GI50 is 14.8 µM (inactive) with HCC 2998; 27 µM (inactive) in the assay on SK-OV-3; 10.3 µM (inactive) in the assay on NCI-H226; 15.9 µM in the assay on HCT-15; 7.05 µM (inactive) in the assay on UO-31; 4.97 µM (inactive) in the assay on OVCAR-3. The GI50 is 11.6 µM (inactive) in the assay with SF-295; 4.14 µM (inactive) with M14; 11.1 µM (inactive) with DU-145; 13.5 µM (inactive) in the assay with SF-539; 7.52 µM (inactive) in the assay with Malme-3M; 13 µM (inactive) in the assay with OVCAR-8. The GI50 with EKVX is 20 µM (inactive).
On to `CCOC(=O)C1(N)CCc2[nH][nH]c(=O)c2C1` (centres undefined), for which the GI50 with A549, in the assay on HCT-116, in the assay with UACC-62, in the assay with TK-10, with KM12 and in the assay on OVCAR-5 was > 100 µM (inactive) throughout. Moreover, the GI50 in the assay with HCC 2998 was > 100 µM (inactive); in the assay with SK-OV-3, > 100 µM (inactive); with NCI-H226 it was > 100 µM (inactive); in the assay on HCT-15, above 100 µM; in the assay with UO-31, > 100 µM (inactive); in the assay on OVCAR-3 it was > 100 µM (inactive). Also, the GI50 in the assay on SF-295, in the assay on BT-549, with M14, in the assay with SF-539, with Malme-3M and with OVCAR-8 was > 100 µM (inactive) in each case. In addition, the GI50 in the assay with EKVX was > 100 µM (inactive).

The values above are taken from ChEMBL document CHEMBL1201862, “PubChem BioAssay data set” (2004).
